Results published in US7776913B2, “Carnitines for treating or preventing disorders caused by andropause” (Sigma-Tau Industrie Farmaceutiche Riunite S.p.A., priority 2002, dated 2010).

How the values were obtained:
[1] = tested on: Patients aged over 60 years with lowered blood concentrations of free and total testosterone; assay: Duration of full nocturnal erections, three nights by Rigiscan; type: in vivo, human; details: for Duration of full erections: three nights by Rigiscan, mean ± SD
Description: (§1) Reported here below is a clinical trial conducted in order to evaluate the activity of the combination according to the association in the treatment of the symptoms of male ageing.
(§2) Patients aged over 60 years with lowered blood concentrations of free and total testosterone (The Aging Male 4: 151-162, 2001) and complaining of symptoms figuring in the working definition of andropause proposed by the International Society for the Study of the Aging Male (I.S.S.A.M.) (The Aging Male 4: 151-162, 2001): reduced libido or sex drive and erectile function, depressed mood, difficulty concentrating, irritability and fatigue.
(§3) The above-mentioned compounds were presented to the patients in anonymous containers and administered for 6 months.
(§4) Medical history-taking and physical examinations were done for all patients. The following data were also collected prior to the start of treatment, after 1, 3 and 6 months of treatment: • 1. Total blood prostate-specific antigen (PSA) (ng/ml) as measured with the automatic test and monoclonal antibodies [Rigatti P., Scattoni V.: PSA: Antigene prostatico specifico. Edizioni Medico Scientifiche (EDIMES) Pavia, 1997]. • 2. Prostate volume (cm^3) as measured by suprapubic ultrasonography and calculated by means of the three diameters rule [Rigatti P. Scattoni V.: PSA: Antigene prostatico specifico. Edizioni Medico Scientifiche (EDIMES) Pavia, 1997]. • 3. Peak systolic volume (PSV) (cm/sec), end-diastolic velocity (EDV) (cm/sec), and Resistance Index (RI) (%) of the penile arteries (right and left cavernous e dorsal) as measured by means of penile basal and dynamic colour Doppler ultrasonography. RI was calculated as follows: (PSV-EDV/EDV)×100 (Urology 1997: 49: 822-830). • 4. Duration of full erections (in minutes) in the course of a recording period of three nights performed with Rigiscan. […] Free and total blood testosterone, LH and prolactin levels (The Aging Male 4: 151-162, 2001). • 6. Sexual function was checked by means of semistructured interviews and administration of the International Index of Erectile Function (IIEF-15) (Urology 1997: 49: 822-830). A score was calculated for each patient. • 7. Depression was quantified by means of the Hamilton Depression Scale questionnaire (DMS III) (Cancer 94: 2481-2489, 2002). A score was calculated for each patient. • 8. The subjective sensation of fatigue was calculated using the fatigue scale (Lison L.: Statistica applicata alla biologia sperimentale. Milano: Casa Editrice Ambrosiana, 1972). A score was calculated for each patient. • 9. Side effects. […]

[2] = tested on: Patients aged over 60 years with lowered blood concentrations of free and total testosterone; assay: Clinical trial overall: andropause symptoms and pathological changes of the cervico-urethral district; type: in vivo, human; details: unlike placebo
Description: as §1
as §2, with “fatigue. […]” for “fatigue.”
Medical history-taking and physical examinations were done for all patients. […] Total blood prostate-specific antigen (PSA) (ng/ml) as measured with the automatic test and monoclonal antibodies [Rigatti P., Scattoni V.: PSA: Antigene prostatico specifico. […] Prostate volume (cm^3) as measured by suprapubic ultrasonography and calculated by means of the three diameters rule [Rigatti P. Scattoni V.: PSA: Antigene prostatico specifico. […] Peak systolic volume (PSV) (cm/sec), end-diastolic velocity (EDV) (cm/sec), and Resistance Index (RI) (%) of the penile arteries (right and left cavernous e dorsal) as measured by means of penile basal and dynamic colour Doppler ultrasonography. RI was calculated as follows: (PSV-EDV/EDV)×100 (Urology 1997: 49: 822-830). • 4. […]

[3] = tested on: Patients aged over 60 years with lowered blood concentrations of free and total testosterone; assay: Blood prolactin levels; type: in vivo, human; parameters: unit not given here; details: mean ± SD
Description: as §1, §2, §3
(§5) Medical history-taking and physical examinations were done for all patients. The following data were also collected prior to the start of treatment, after 1, 3 and 6 months of treatment: • 1. Total blood prostate-specific antigen (PSA) (ng/ml) as measured with the automatic test and monoclonal antibodies [Rigatti P., Scattoni V.: PSA: Antigene prostatico specifico. Edizioni Medico Scientifiche (EDIMES) Pavia, 1997]. • 2. Prostate volume (cm^3) as measured by suprapubic ultrasonography and calculated by means of the three diameters rule [Rigatti P. Scattoni V.: PSA: Antigene prostatico specifico. […] Peak systolic volume (PSV) (cm/sec), end-diastolic velocity (EDV) (cm/sec), and Resistance Index (RI) (%) of the penile arteries (right and left cavernous e dorsal) as measured by means of penile basal and dynamic colour Doppler ultrasonography. RI was calculated as follows: (PSV-EDV/EDV)×100 (Urology 1997: 49: 822-830). • 4. […] A score was calculated for each patient. • 7. Depression was quantified by means of the Hamilton Depression Scale questionnaire (DMS III) (Cancer 94: 2481-2489, 2002). A score was calculated for each patient. • 8. The subjective sensation of fatigue was calculated using the fatigue scale (Lison L.: Statistica applicata alla biologia sperimentale. Milano: Casa Editrice Ambrosiana, 1972). A score was calculated for each patient. • 9. […]

[4] = tested on: patients in the andropause; details: 40×2 mg/day; cited from earlier work
[5] = tested on: Patients aged over 60 years with lowered blood concentrations of free and total testosterone; assay: Blood levels of LH; type: in vivo, human; details: for LH: blood, mean ± SD
Description: as §1, §2, §3
(§6) Medical history-taking and physical examinations were done for all patients. The following data were also collected prior to the start of treatment, after 1, 3 and 6 months of treatment: • 1. Total blood prostate-specific antigen (PSA) (ng/ml) as measured with the automatic test and monoclonal antibodies [Rigatti P., Scattoni V.: PSA: Antigene prostatico specifico. Edizioni Medico Scientifiche (EDIMES) Pavia, 1997]. • 2. Prostate volume (cm^3) as measured by suprapubic ultrasonography and calculated by means of the three diameters rule [Rigatti P. Scattoni V.: PSA: Antigene prostatico specifico. Edizioni Medico Scientifiche (EDIMES) Pavia, 1997]. • 3. Peak systolic volume (PSV) (cm/sec), end-diastolic velocity (EDV) (cm/sec), and Resistance Index (RI) (%) of the penile arteries (right and left cavernous e dorsal) as measured by means of penile basal and dynamic colour Doppler ultrasonography. RI was calculated as follows: (PSV-EDV/EDV)×100 (Urology 1997: 49: 822-830). • 4. Duration of full erections (in minutes) in the course of a recording period of three nights performed with Rigiscan. […] Free and total blood testosterone, LH and prolactin levels (The Aging Male 4: 151-162, 2001). • 6. Sexual function was checked by means of semistructured interviews and administration of the International Index of Erectile Function (IIEF-15) (Urology 1997: 49: 822-830). A score was calculated for each patient. • 7. Depression was quantified by means of the Hamilton Depression Scale questionnaire (DMS III) (Cancer 94: 2481-2489, 2002). A score was calculated for each patient. • 8. The subjective sensation of fatigue was calculated using the fatigue scale (Lison L.: Statistica applicata alla biologia sperimentale. Milano: Casa Editrice Ambrosiana, 1972). A score was calculated for each patient. • 9. Side effects.
(§7) Blood concentrations of PSA, free and total testosterone, prolactin LH, prostate volume, PSV, EDV, RI, full erection duration, IIEF-15, DMS III, and fatigue scale scores were compared between and within groups by means of factorial analysis of variance for randomised blocks (1 patient=1 block). Comparison of the mean values was done on the raw data with the exclusion of RI which used data subjected to angular transformation (sin^−1 √P/100) for the comparisons. Side effects were compared using the chi-square etst (Lison L.: Statistica applicata alla biologia sperimentale. Milano: Casa Editrice Ambrosiana, 1972).

[6] = tested on: Patients aged over 60 years with lowered blood concentrations of free and total testosterone; assay: Hamilton Depression Scale questionnaire (DMS III); type: in vivo, human; details: for Hamilton Depression Scale questionnaire (DMS III) score: mean ± SD
Description: as §1, §2, §3, §6, §7

[7] = tested on: Patients aged over 60 years with lowered blood concentrations of free and total testosterone; assay: Prostate volume by suprapubic ultrasonography (three diameters rule); details: mean ± SD
Description: as §1, §2, §3, §5

[8] = tested on: Patients aged over 60 years with lowered blood concentrations of free and total testosterone; assay: Blood levels of total testosterone; type: in vivo, human; details: for Total testosterone: blood, mean ± SD
Description: as §1, §2, §3, §4

[9] = tested on: Patients aged over 60 years with lowered blood concentrations of free and total testosterone; assay: Fatigue scale; type: in vivo, human; details: for Fatigue scale score: mean ± SD
Description: as §1, §2, §3, §6, §7

[10] = tested on: Patients aged over 60 years with lowered blood concentrations of free and total testosterone; assay: International Index of Erectile Function questionnaire (IIEF-15); type: in vivo, human; details: 3 months of therapy; mean ± SD
Description: as §1, §2, §3, §6, §7

Question: Which “Duration of full erections” value ([1]; 3 months of therapy) does the source give for testosterone undecaonate here?
Answer: 112.7 ± 21.1 min

Question: What about the “Duration of full erections” value ([1]; 6 months of therapy) of the same substance?
Answer: 119.6 ± 26.0 min

Question: What about the “Change in duration of full nocturnal erections (in words)” value ([1]; at 6 months) of the same substance?
Answer: significant increase

Question: What about the “Duration of full erections” value ([1]; before therapy) of the same substance?
Answer: 108.3 ± 18.7 min

Question: What about the “Effect on the symptoms of andropause” value [2] of the same substance?
Answer: capable of attenuating

Question: And the Prolactin ([3]; 3 months of therapy)?
Answer: 7.4 ± 1.7

Question: What about the Prolactin ([3]; 6 months of therapy) of the same substance?
Answer: 7.3 ± 1.8

Question: And the Prolactin ([3]; before therapy)?
Answer: 7.7 ± 1.6

Question: And the “Benefit in patients in the andropause” value [4]?
Answer: fair amount of benefit

Question: What about the “Change in blood levels of LH (in words)” value ([5]; at 3 months, F=229 P<0.01) of the same substance?
Answer: statistically significant reduction

Question: What about the “Change in blood levels of LH (in words)” value ([5]; at 6 months) of the same substance?
Answer: significant reduction

Question: And the LH ([5]; 3 months of therapy)?
Answer: 4.3 ± 0.6 IU/l

Question: And the LH ([5]; 6 months of therapy)?
Answer: 4.2 ± 1.2 IU/l

Question: And the LH ([5]; before therapy)?
Answer: 8.9 ± 0.6 IU/l

Question: And the “Hamilton Depression Scale questionnaire (DMS III) score” value ([6]; 3 months of therapy)?
Answer: 5.8 ± 0.7

Question: And the “Hamilton Depression Scale questionnaire (DMS III) score” value ([6]; 6 months of therapy)?
Answer: 5.1 ± 1.3

Question: What about the “Change in DMS III scores (in words)” value ([6]; at 3 months, F=4.07, P<0.05) of the same substance?
Answer: significant decrease

Question: And the “Significant decrease in DMS III scores (in words)” value ([6]; at 6 months, F=2.5, P=n.s.)?
Answer: but not at 6 months

Question: What about the “DMS III score compared between groups” value ([6]; at 6 months, comparison with placebo (and testosterone)) of the same substance?
Answer: No significant difference

Question: What about the “Hamilton Depression Scale questionnaire (DMS III) score” value ([6]; before therapy) of the same substance?
Answer: 6.6 ± 1.0

Question: And the Prostate volume ([7]; 3 months of therapy)?
Answer: 15.5 ± 3.0 cm^3

Question: What about the Prostate volume ([7]; 6 months of therapy) of the same substance?
Answer: 15.5 ± 2.6 cm^3

Question: And the Prostate volume ([7]; before therapy)?
Answer: 15.3 ± 2.8 cm^3

Question: And the “Change in total serum testosterone (in words)” value ([8]; at either 3 or 6 months)?
Answer: no significant increases

Question: And the Total testosterone ([8]; 3 months of therapy)?
Answer: 15.5 ± 3.9 nmol/L

Question: And the Total testosterone ([8]; 6 months of therapy)?
Answer: 15.8 ± 2.6 nmol/L

Question: And the Total testosterone ([8]; before therapy)?
Answer: 14.5 ± 2.1 nmol/L

Question: And the Fatigue scale score ([9]; 3 months of therapy)?
Answer: 1.1 ± 1.0

Question: And the Fatigue scale score ([9]; 6 months of therapy)?
Answer: 0.6 ± 0.4

Question: What about the “Change in fatigue scale score (in words)” value ([9]; at 3 months, F=33.6, P<0.01) of the same substance?
Answer: statistically significant increase

Question: And the “Change in fatigue scale score (in words)” value ([9]; at 6 months, F=5.9, P=n.s.)?
Answer: no significant increase

Question: What about the Fatigue scale score ([9]; before therapy) of the same substance?
Answer: 2.8 ± 1.3

Question: What about the “Activity in increasing the sensation of general well-being, comparison” value ([9]; conclusion from Table 20) of the same substance?
Answer: significantly more active than placebo

Question: What about the “IIEF-15 Erectile Function section score” value [10] of the same substance?
Answer: 16.7 ± 3.7

Question: And the “IIEF-15 General Satisfaction section score (Table 18 title)” value [10]?
Answer: 3.7 ± 1.1

Question: What about the “IIEF-15 Intercourse Satisfaction section score” value [10] of the same substance?
Answer: 4.8 ± 0.8
